Experiment: xn = mol fraction of the nth substance listed

O=[N+]([O-])c1ccccc1 + CO
viscosity [mPa·s]
Conditions | 298.15 K | 303.15 K
101 kPa, x1 = 0.0148 | 0.5642 | –
101 kPa, x2 = 0.0719 | 1.698 | –
101 kPa, x2 = 0.2616 | 1.416 | –
101 kPa, x2 = 0.4788 | 1.161 | –
101 kPa, x2 = 0.5889 | 1.036 | –
101 kPa, x2 = 0.7539 | 0.8366 | –
101 kPa, x2 = 0.8593 | 0.7113 | –
101 kPa, x2 = 0.9296 | 0.6279 | –
101.33 kPa, x1 = 0.0281 | 0.5789 | 0.541
101.33 kPa, x1 = 0.0612 | 0.611 | 0.5673
101.33 kPa, x1 = 0.1003 | 0.6507 | 0.607
101.33 kPa, x1 = 0.1478 | 0.7156 | 0.6653
101.33 kPa, x1 = 0.2806 | 0.8769 | 0.81
101.33 kPa, x1 = 0.3909 | 1.006 | 0.9279
101.33 kPa, x1 = 0.5102 | 1.156 | 1.093
101.33 kPa, x1 = 0.5937 | – | 1.298
101.33 kPa, x1 = 0.8005 | 1.559 | 1.485
101.33 kPa, x1 = 0.8978 | 1.693 | 1.534

CCCCCO + COC(=O)OC
101.3 kPa
Conditions | viscosity [mPa·s]
293.15 K, x2 = 0.0482 | 3.367
293.15 K, x2 = 0.0991 | 2.836
293.15 K, x2 = 0.1941 | 2.11
293.15 K, x2 = 0.2974 | 1.605
293.15 K, x2 = 0.3939 | 1.304
293.15 K, x2 = 0.4993 | 1.092
293.15 K, x2 = 0.6 | 0.939
293.15 K, x2 = 0.7013 | 0.81
293.15 K, x2 = 0.8013 | 0.704
293.15 K, x2 = 0.8915 | 0.635
293.15 K, x2 = 0.9503 | 0.619
298.15 K, x2 = 0.0457 | 2.905
298.15 K, x2 = 0.1016 | 2.46
298.15 K, x2 = 0.1979 | 1.88
298.15 K, x2 = 0.3057 | 1.441
298.15 K, x2 = 0.4024 | 1.179
298.15 K, x2 = 0.503 | 0.988
298.15 K, x2 = 0.5793 | 0.878
298.15 K, x2 = 0.7034 | 0.739
298.15 K, x2 = 0.8003 | 0.655
298.15 K, x2 = 0.9018 | 0.597
298.15 K, x2 = 0.9494 | 0.586
303.15 K, x1 = 0.0192 | 0.542
303.15 K, x2 = 0.0539 | 2.488
303.15 K, x2 = 0.0906 | 2.228
303.15 K, x2 = 0.1979 | 1.66
303.15 K, x2 = 0.2613 | 1.416
303.15 K, x2 = 0.3902 | 1.066
303.15 K, x2 = 0.4928 | 0.89
303.15 K, x2 = 0.5918 | 0.759
303.15 K, x2 = 0.6923 | 0.661
303.15 K, x2 = 0.792 | 0.601
303.15 K, x2 = 0.8943 | 0.56
313.15 K, x2 = 0.0467 | 1.972
313.15 K, x2 = 0.1037 | 1.678
313.15 K, x2 = 0.2514 | 1.161
313.15 K, x2 = 0.3005 | 1.046
313.15 K, x2 = 0.3996 | 0.876
313.15 K, x2 = 0.5052 | 0.75
313.15 K, x2 = 0.6059 | 0.659
313.15 K, x2 = 0.7024 | 0.596
313.15 K, x2 = 0.8053 | 0.54
313.15 K, x2 = 0.9051 | 0.502
313.15 K, x2 = 0.9651 | 0.494

C=COCCCC + COC(=O)c1ccccc1
viscosity [mPa·s], 100 kPa
Conditions | x2 = 0.0898 | x2 = 0.1468 | x2 = 0.228 | x2 = 0.3145 | x2 = 0.4054 | x2 = 0.5056 | x2 = 0.6161 | x2 = 0.7316 | x2 = 0.8597
303.15 K | 0.437 | 0.497 | 0.571 | 0.657 | 0.761 | 0.891 | 1.038 | 1.205 | 1.422
308.15 K | 0.421 | 0.478 | 0.546 | – | – | – | 0.974 | 1.124 | 1.319
313.15 K | 0.4 | 0.452 | 0.515 | 0.585 | 0.671 | 0.778 | 0.897 | 1.034 | 1.205

— the CheMixHub viscosity set
